{"source": "paper PMC6764291", "about": "(Frontiers in Oncology, 2019)", "key": {"[1]": {"tested_on": "p53", "experiment": "Western Blot p53 expression, UM-SCC-74B", "assay_type": "cell-based, human", "details": "n ≥ 3", "procedure": "(§1) Cells were irradiated using ^137Cs gamma-ray photons at a dose-rate of ~1 Gy/min (Best Theratronics Gammacell® 40Exactor, Springfield, USA).\n(§2) Whole-cell lysates were prepared according to standard protocols. Protein concentrations were measured using a DeNovix DS-11 spectrophotometer (DeNovix Inc., Wilmington, DE, USA). Samples were separated on 4–12% Bis-Tris SDS gels and transferred to a nitrocellulose membrane (ThermoFisher Scientific, Uppsala, Sweden) by wet-transfer blotting. The membrane was blocked for 1 h in PBS with 5% BSA before incubation with primary antibodies targeting p53, caspase-3, NaK-ATPase and GLB1 (DO-1 (ab1101), ab13847, ab76020 and ab128993, AbCam, Cambridge, UK) and β-actin (A5441, Sigma Aldrich Sweden, Stockholm, Sweden) at 4°C overnight. After washing with PBS with 1% Tween-20, the membrane was incubated with respective and species-specific Horse Radish Peroxidase-labeled secondary antibody (ThermoFisher Scientific, Waltham, MA, USA) and stained with electro-chemiluminescent solution (Immobilon, Millipore, Bedford, USA)."}, "[2]": {"tested_on": "cleaved caspase-3", "experiment": "Western Blot cleaved caspase-3 expression, UM-SCC-74B", "assay_type": "cell-based, human", "procedure": "as §1, §2"}, "[3]": {"tested_on": "UM-SCC-74B", "experiment": "Cell cycle analysis by flow cytometry, UM-SCC-74B", "assay_type": "cell-based, human", "details": "for G2/M-phase / S-phase: viable cells, DAPI", "procedure": "as §1\n(§3) Cells were collected and fixed in 70% ethanol at 6, 12, 24, 48, 72, and 96 h post-irradiation and stored at −20°C. For cell cycle analyses, 6, 12, 24, and 48 h samples were rehydrated and washed twice with PBS and stained with DAPI (Sigma Aldrich Sweden, Stockholm, Sweden) using 1 μg/ml for 30 min. 24, 48, 72, and 96 h samples were stained with caspase-3 and Noxa (ab13847 (1:500) and ab13654 (1:1,000), AbCam, Cambridge, UK) overnight at 4°C, followed by incubation with fluorescent labeled secondary antibodies for 90 min (ab 1:400) at room temperature. Analyses were performed using a BD LSR Fortessa flow cytometer (Becton Dickinson Biosciences, San Jose, USA). Data analyses for cleaved caspase-3 and Noxa were performed with BD FACSDiVa (Becton Dickinson Biosciences, San Jose, USA), while cell cycle analyses of exclusively viable cells were performed using FlowJo (Becton, Dickinson Biosciences, San Jose, USA). Coefficient of variation (CV) values, were below seven for all samples."}, "[4]": {"tested_on": "GLB-1", "experiment": "Western Blot GLB-1 expression, HCT116", "assay_type": "cell-based", "details": "2 Gy + 20 μM PM2, n ≥ 3", "procedure": "as §1, §2"}, "[5]": {"tested_on": "HCT116", "experiment": "Cell cycle analysis by flow cytometry, HCT116", "assay_type": "cell-based", "details": "for G2/M-phase / S-phase: viable cells, DAPI", "procedure": "as §1, §3"}, "[6]": {"tested_on": "GLB-1", "experiment": "Western Blot GLB-1 expression, UM-SCC-74B", "assay_type": "cell-based, human", "details": "2 Gy + 20 μM PM2, 72 h, n ≥ 3", "procedure": "as §1, §2"}, "[7]": {"tested_on": "Noxa", "experiment": "Flow cytometry Noxa expression, HCT116", "assay_type": "cell-based", "procedure": "as §1, §3"}, "[8]": {"tested_on": "UM-SCC-74A", "experiment": "XTT cell viability, UM-SCC-74A", "assay_type": "cell-based, human", "procedure": "The human squamous cell carcinoma cell lines UM-SCC-74A and UM-SCC-74B were kindly provided by Professor TE Carey (University of Michigan, USA) and cultured in Dulbecco's Modified Eagle Medium (DMEM) with 10% fetal bovine serum, 1% L-glutamine, 1% antibiotics (100 IU penicillin and 100 μg/ml streptomycin) as well as 1% non-essential amino acids (all from Biochrom Kg, Berlin, Germany). UT-SCC-45 (kindly provided by Dr. R. Grenman, Turku University Central Hospital, Finland) was cultured in DMEM with the abovementioned additives. HCT116 and A431 were purchased from American Type Culture Collection (Manassas, VA, USA). HCT116 was cultured in McCoy's modified Eagle medium with 10% fetal bovine serum, 1% L-glutamine and 1% antibiotics (100 IU penicillin and 100 μg/ml streptomycin) and A431 was cultured in Ham's F10 with the same additives. H314 was purchased from the European Collection of Authenticated Cell Cultures (Salisbury, UK) in DMEM/Ham's F12 (1:1) with the abovementioned additives. Cells were incubated at 37°C with 5% CO2, and cultivated for no longer than 2 months at a time.\nas §1\nFive-hundred to ten thousands cells were seeded in flat-bottomed 96-well plates and incubated for 48 h prior to irradiation with 2Gy. […] Cells were incubated at 37° for 4–5 days until 80–90% confluence had been obtained. A mix of XTT Activation Reagent and XTT Reagent was added according to the American Type Culture Collection 30–1011 K protocol (Manassas, VA, USA). Plates were incubated for up to 6 h at 37° and absorbance was measured by using a BioMark Microplate Reader (Bio-Rad Laboratories AB, Solna, Sweden).\nGraphPad Prism version 6.07 (GraphPad Software, San Diego, USA) was used for data processing and analysis. p-values were determined using unpaired student's t-test for comparison between two groups or one-way ANOVA followed by Tukey's multiple comparisons test, with p < 0.05 (^*), p < 0.01 (^**), p < 0.001 (^***), and p < 0.0001 (^****). For XTT assays cell viability was normalized for irradiated and unirradiated samples separately. […] CDI ≤ 0.7 equaled significant synergistic effect, CDI ≤ 1 equaled additive effect and CDI > 1 equaled antagonistic effect ([29])."}, "[9]": {"details": "Combination 2 Gy + 20 μM PM2, 6 h"}, "[10]": {"details": "Combination 2 Gy + 20 μM PM2, 12 h"}, "[11]": {"details": "Combination 2 Gy + 20 μM PM2, 24 h"}, "[12]": {"details": "Combination 2 Gy + 20 μM PM2, 48 h"}}, "note": "“Also recorded” adds a separate entry of the source.", "data": [{"smiles": "CC(=O)N[C@H](C(=O)N[C@@H](CO)C(=O)N[C@@H](Cc1ccccc1)C(=O)N[C@]1(C)CCCCCCC=CCCC[C@@](C)(C(N)=O)NC(=O)[C@H](CC(C)C)NC(=O)[C@H](CC(C)C)NC(=O)[C@H](C)NC(=O)[C@H](Cc2c[nH]c3ccccc23)NC(=O)[C@H](Cc2ccc(O)cc2)NC(=O)[C@H](CCC(=O)O)NC1=O)[C@@H](C)O", "note": "[PM2]", "values": [{"measurement": "p53 expression", "setting": "[1]; 20 μM PM2, 24 h", "result": "increased expression of p53"}, {"measurement": "p53 expression, combination versus PM2 alone", "setting": "[1]; 2 Gy + 20 μM PM2, 24 h", "result": "significant increase; also recorded: further increased wt p53 levels"}, {"measurement": "increase in wt p53 levels following combination therapy", "setting": "[1]; 2 Gy + 20 μM PM2, 24 h, normalized to controls", "result": "~5", "unit": "fold"}, {"measurement": "increase in cleaved caspase-3 levels", "setting": "[2]; 20 μM PM2, 72 h, normalized to controls, n ≥ 3", "result": "Four-fold"}, {"measurement": "cleaved caspase-3 expression", "setting": "[2]; 20 μM PM2-treated samples, n ≥ 3", "result": "increase in expression"}, {"measurement": "cleaved caspase-3 expression, combination", "setting": "[2]; 2 Gy + 20 μM PM2, n ≥ 3", "result": "predominant"}, {"measurement": "G2/M-phase", "setting": "[3]; 20 μM PM2 alone, 6 h", "result": 19.7, "unit": "%"}, {"measurement": "S-phase", "setting": "[3]; 20 μM PM2 alone, 6 h", "result": 41.6, "unit": "%"}, {"measurement": "G2/M-phase", "setting": "[3]; 20 μM PM2 alone, 24 h", "result": 16.7, "unit": "%"}, {"measurement": "S-phase", "setting": "[3]; 20 μM PM2 alone, 24 h", "result": 12.9, "unit": "%"}, {"measurement": "G2/M-phase", "setting": "[3]; 20 μM PM2 alone, 48 h", "result": 10.8, "unit": "%"}, {"measurement": "S-phase", "setting": "[3]; 20 μM PM2 alone, 48 h", "result": 17.4, "unit": "%"}, {"measurement": "S-phase reduction / depletion", "setting": "[3]; 2 Gy + 20 μM PM2", "result": "S-phase reduction occurred as early as 12 h post-treatment; also recorded: S-phase depletion at 24 h post-treatment"}, {"measurement": "G2/M-phase", "setting": "[3]; [9]", "result": 37.9, "unit": "%"}, {"measurement": "S-phase", "setting": "[3]; [9]", "result": 42.9, "unit": "%"}, {"measurement": "G2/M-phase", "setting": "[3]; [10]", "result": 39.4, "unit": "%"}, {"measurement": "S-phase", "setting": "[3]; [10]", "result": 7.31, "unit": "%"}, {"measurement": "G2/M-phase", "setting": "[3]; [11]", "result": 23.8, "unit": "%"}, {"measurement": "S-phase", "setting": "[3]; [11]", "result": 2.89, "unit": "%"}, {"measurement": "G2/M-phase", "setting": "[3]; [12]", "result": 20.6, "unit": "%"}, {"measurement": "S-phase", "setting": "[3]; [12]", "result": 5.37, "unit": "%"}, {"measurement": "GLB-1 expression versus irradiated and control, combination", "setting": "[4]", "result": "less pronounced and failed to reach significance"}, {"measurement": "G2/M-phase", "setting": "[5]; 20 μM PM2 alone, 6 h", "result": 19.4, "unit": "%"}, {"measurement": "S-phase", "setting": "[5]; 20 μM PM2 alone, 6 h", "result": 55.8, "unit": "%"}, {"measurement": "G2/M-phase", "setting": "[5]; 20 μM PM2 alone, 12 h", "result": 30.1, "unit": "%"}, {"measurement": "S-phase", "setting": "[5]; 20 μM PM2 alone, 12 h", "result": 35.1, "unit": "%"}, {"measurement": "G2/M-phase", "setting": "[5]; 20 μM PM2 alone, 24 h", "result": 21.1, "unit": "%"}, {"measurement": "S-phase", "setting": "[5]; 20 μM PM2 alone, 24 h", "result": 10.7, "unit": "%"}, {"measurement": "G2/M-phase", "setting": "[5]; 20 μM PM2 alone, 48 h", "result": 20.6, "unit": "%"}, {"measurement": "S-phase", "setting": "[5]; 20 μM PM2 alone, 48 h", "result": 23, "unit": "%"}, {"measurement": "S-phase reduction / depletion", "setting": "[5]; 2 Gy + 20 μM PM2", "result": "S-phase reduction occurred as early as 12 h post-treatment; also recorded: S-phase depletion at 24 h post-treatment"}, {"measurement": "G2/M-phase cells versus untreated controls", "setting": "[5]; 2 Gy + 20 μM PM2, throughout 48 h", "result": "More than twice as many cells"}, {"measurement": "G2/M-phase", "setting": "[5]; [9]", "result": 39.9, "unit": "%"}, {"measurement": "S-phase", "setting": "[5]; [9]", "result": 44.9, "unit": "%"}, {"measurement": "G2/M-phase", "setting": "[5]; [10]", "result": 53.8, "unit": "%"}, {"measurement": "S-phase", "setting": "[5]; [10]", "result": 17.3, "unit": "%"}, {"measurement": "G2/M-phase", "setting": "[5]; [11]", "result": 42.7, "unit": "%"}, {"measurement": "S-phase", "setting": "[5]; [11]", "result": 5.51, "unit": "%"}, {"measurement": "G2/M-phase", "setting": "[5]; [12]", "result": 29.9, "unit": "%"}, {"measurement": "S-phase", "setting": "[5]; [12]", "result": 17.5, "unit": "%"}, {"measurement": "GLB-1 expression, combination versus irradiated", "setting": "[6]", "result": "significant increase"}, {"measurement": "Noxa expression", "setting": "[7]; 20 μM PM2, 72 h", "result": "distinct increases"}, {"measurement": "Noxa increase, combination compared to PM2 therapy alone", "setting": "[7]; 2 Gy + 20 μM PM2, p ≤ 0.01, n ≥ 3", "result": 4, "unit": "fold"}, {"measurement": "PM2 effect", "setting": "[8]; 0–20 μM PM2, 0 Gy, wild-type p53, HPV negative, n ≥ 4", "result": "decreased significantly the viability and Yes"}, {"measurement": "average viability reduction", "setting": "[8]; 20 μM PM2, 0 Gy, compared to untreated controls", "result": 73, "unit": "%"}, {"measurement": "lowest PM2 dose with significant decrease of viability", "setting": "[8]; PM2 alone", "result": "~ 10 μM"}, {"measurement": "IC50", "setting": "[8]; PM2 alone (0 Gy), 4–5 days", "result": 16, "unit": "µM"}, {"measurement": "Significant effect of combination", "setting": "[8]; PM2 with 2 Gy EBRT, n ≥ 4", "result": "Yes"}]}]}
